Assay results: ChEMBL document CHEMBL1148838, “Synthesis and antibacterial evaluation of a novel series of rifabutin-like spirorifamycins” (2007)
Converted amounts (≈) assume the structure as drawn.

Assays:
Type in all cases: functional
Staphylococcus aureus [1] = assay: Antibacterial activity against rifamycin-sensitive Staphylococcus aureus CB190
Staphylococcus aureus [2] = assay: Antibacterial activity against intermediate rifamycin-resistant Staphylococcus aureus CB372 with rpoB Asp471Tyr mutation
Staphylococcus aureus [3] = assay: Antibacterial activity against rifamycin-resistant Staphylococcus aureus CB370 with rpoB His481Tyr mutation
Staphylococcus aureus [4] = assay: Antibacterial activity against Staphylococcus aureus ATCC 6538 induced-septicemia in po dosed mouse; details: ATCC 6538, po
Staphylococcus aureus [5] = assay: Antibacterial activity against Staphylococcus aureus ATCC 6538 induced-septicemia in sc dosed mouse; details: ATCC 6538, sc

Compound	MIC (Staphylococcus aureus [1]) [mg/L]	MIC (Staphylococcus aureus [2]) [mg/L]	MIC (Staphylococcus aureus [3]) [mg/L]	ED50 (Staphylococcus aureus [4]) [mg/kg]	ED50 (Staphylococcus aureus [5]) [mg/kg]
CO[C@H]1/C=C/O[C@@]2(C)Oc3c(C)c(O)c4c(c3C2=O)C2=NC3(CCN(C(=O)OC(C)(C)C)CC3)CNC2=C(NC(=O)/C(C)=C\C=C\[C@H](C)[C@H](O)[C@@H](C)[C@@H](O)[C@@H](C)[C@H](OC(C)=O)[C@@H]1C)C4=O	0.026 (≈ 0.0287 µM)	7.81 (≈ 8.63 µM)	> 62.5	–	–
C=CCN1CCC2(CC1)CNC1=C3NC(=O)/C(C)=C\C=C\[C@H](C)[C@H](O)[C@@H](C)[C@@H](O)[C@@H](C)[C@H](OC(C)=O)[C@H](C)[C@@H](OC)/C=C/O[C@@]4(C)Oc5c(C)c(O)c(c(c5C4=O)C1=N2)C3=O	0.006 (≈ 0.0071 µM)	15.6 (≈ 18.5 µM)	> 62.5	–	–
CO[C@H]1/C=C/O[C@@]2(C)Oc3c(C)c(O)c4c(c3C2=O)C2=NC3(CCN(C(=O)OC(C)(C)C)C3)CNC2=C(NC(=O)/C(C)=C\C=C\[C@H](C)[C@H](O)[C@@H](C)[C@@H](O)[C@@H](C)[C@H](OC(C)=O)[C@@H]1C)C4=O (some centres undefined)	0.016 (≈ 0.018 µM)	7.81 (≈ 8.77 µM)	> 62.5	–	–
CO[C@H]1/C=C/O[C@@]2(C)Oc3c(C)c(O)c4c(c3C2=O)C2=NC3(CCN(C)CC3)CNC2=C(NC(=O)/C(C)=C\C=C\[C@H](C)[C@H](O)[C@@H](C)[C@@H](O)[C@@H](C)[C@H](OC(C)=O)[C@@H]1C)C4=O	0.016 (≈ 0.0195 µM)	1.95 (≈ 2.38 µM)	> 62.5	> 10	0.3
CO[C@H]1/C=C/O[C@@]2(C)Oc3c(C)c(O)c4c(c3C2=O)C2=NC3(CCN(C)C3)CNC2=C(NC(=O)/C(C)=C\C=C\[C@H](C)[C@H](O)[C@@H](C)[C@@H](O)[C@@H](C)[C@H](OC(C)=O)[C@@H]1C)C4=O (some centres undefined)	0.013 (≈ 0.0162 µM)	0.98 (≈ 1.22 µM)	> 62.5	–	–
CO[C@H]1/C=C/O[C@@]2(C)Oc3c(C)c(O)c4c(c3C2=O)C2=NC3(CCN(Cc5ccccc5)CC3)CNC2=C(NC(=O)/C(C)=C\C=C\[C@H](C)[C@H](O)[C@@H](C)[C@@H](O)[C@@H](C)[C@H](OC(C)=O)[C@@H]1C)C4=O	0.003 (≈ 0.00335 µM)	1.95 (≈ 2.18 µM)	32 (≈ 35.8 µM)	–	–
CO[C@H]1/C=C/O[C@@]2(C)Oc3c(C)c(O)c4c(c3C2=O)C2=NC3(CCN(CC(C)C)CC3)NC2=C(NC(=O)/C(C)=C\C=C\[C@H](C)[C@H](O)[C@@H](C)[C@@H](O)[C@@H](C)[C@H](OC(C)=O)[C@@H]1C)C4=O [RIFABUTIN]	0.031 (≈ 0.0366 µM)	15.6 (≈ 18.4 µM)	> 62.5	0.6	< 0.1
CO[C@H]1/C=C/O[C@@]2(C)Oc3c(C)c(O)c4c(c3C2=O)C2=NC3(CCN(Cc5cnc6ccccc6c5)C3)CNC2=C(NC(=O)/C(C)=C\C=C\[C@H](C)[C@H](O)[C@@H](C)[C@@H](O)[C@@H](C)[C@H](OC(C)=O)[C@@H]1C)C4=O (some centres undefined)	0.063 (≈ 0.0676 µM)	7.81 (≈ 8.38 µM)	> 62.5	–	–
CO[C@H]1/C=C/O[C@@]2(C)Oc3c(C)c(O)c4c(c3C2=O)C2=NC3(CCN(CC(C)C)C3)CNC2=C(NC(=O)/C(C)=C\C=C\[C@H](C)[C@H](O)[C@@H](C)[C@@H](O)[C@@H](C)[C@H](OC(C)=O)[C@@H]1C)C4=O (some centres undefined)	0.063 (≈ 0.0744 µM)	> 62.5	31.3 (≈ 37 µM)	–	–
CO[C@H]1/C=C/O[C@@]2(C)Oc3c(C)c(O)c4c(c3C2=O)C2=NC3(CCN(Cc5cnc6ccccc6c5)CC3)CNC2=C(NC(=O)/C(C)=C\C=C\[C@H](C)[C@H](O)[C@@H](C)[C@@H](O)[C@@H](C)[C@H](OC(C)=O)[C@@H]1C)C4=O	0.063 (≈ 0.0666 µM)	0.98 (≈ 1.04 µM)	15.6 (≈ 16.5 µM)	5	0.6
CO[C@H]1/C=C/O[C@@]2(C)Oc3c(C)c(O)c4c(c3C2=O)C2=NC3(CCN(Cc5ccccc5)C3)CNC2=C(NC(=O)/C(C)=C\C=C\[C@H](C)[C@H](O)[C@@H](C)[C@@H](O)[C@@H](C)[C@H](OC(C)=O)[C@@H]1C)C4=O (some centres undefined)	0.031 (≈ 0.0352 µM)	3.91 (≈ 4.44 µM)	> 62.5	–	–
CO[C@H]1/C=C/O[C@@]2(C)Oc3c(C)c(O)c4c(c3C2=O)C2=NC3(CCN(CC(C)C)CC3)CNC2=C(NC(=O)/C(C)=C\C=C\[C@H](C)[C@H](O)[C@@H](C)[C@@H](O)[C@@H](C)[C@H](OC(C)=O)[C@@H]1C)C4=O	0.063 (≈ 0.0732 µM)	7.81 (≈ 9.07 µM)	> 62.5	< 0.1	0.6
